According to patent US20090111801A1, “SUBSTITUTED PYRAZINONE DERIVATIVES FOR USE AS A MEDICINE” (Janssen Pharmaceutica N.V., priority 2006, published 2009):

Assays:
hα2A receptor = target: T1, hα2A receptor (Homo sapiens, UniProt P08913); assay: Radioligand binding experiment for α2A-adrenoceptor ([3H]raulwolscine, CHO cell membranes); settings: [3H]raulwolscine binding, read-out: h-α2A pIC50 (converted)
T1 construct: expressed in transfected cells; host or cells: CHO cells, stably transfected; membrane preparation
T1 sequence (P08913 1-465): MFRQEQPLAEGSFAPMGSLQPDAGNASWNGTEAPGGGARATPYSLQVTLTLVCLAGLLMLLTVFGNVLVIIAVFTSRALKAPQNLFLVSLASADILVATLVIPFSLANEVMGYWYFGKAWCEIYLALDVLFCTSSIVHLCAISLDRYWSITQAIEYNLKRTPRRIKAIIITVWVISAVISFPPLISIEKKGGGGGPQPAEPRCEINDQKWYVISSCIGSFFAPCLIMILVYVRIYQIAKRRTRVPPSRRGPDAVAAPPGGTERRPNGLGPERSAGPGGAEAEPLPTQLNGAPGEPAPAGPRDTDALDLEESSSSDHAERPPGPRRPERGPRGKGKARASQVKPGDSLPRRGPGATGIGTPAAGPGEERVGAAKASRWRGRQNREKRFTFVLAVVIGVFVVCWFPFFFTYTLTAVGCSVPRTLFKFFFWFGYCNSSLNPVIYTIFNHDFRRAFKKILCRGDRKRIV

hα2C receptor = target: T2, hα2C receptor (Homo sapiens, UniProt P18825); assay: Radioligand binding experiment for α2C-adrenoceptor ([3H]raulwolscine, CHO cell membranes); settings: [3H]raulwolscine binding, read-out: h-α2C pIC50 (converted)
T2 construct: expressed in transfected cells; host or cells: CHO cells, stably transfected; membrane preparation
T2 sequence (P18825 1-462): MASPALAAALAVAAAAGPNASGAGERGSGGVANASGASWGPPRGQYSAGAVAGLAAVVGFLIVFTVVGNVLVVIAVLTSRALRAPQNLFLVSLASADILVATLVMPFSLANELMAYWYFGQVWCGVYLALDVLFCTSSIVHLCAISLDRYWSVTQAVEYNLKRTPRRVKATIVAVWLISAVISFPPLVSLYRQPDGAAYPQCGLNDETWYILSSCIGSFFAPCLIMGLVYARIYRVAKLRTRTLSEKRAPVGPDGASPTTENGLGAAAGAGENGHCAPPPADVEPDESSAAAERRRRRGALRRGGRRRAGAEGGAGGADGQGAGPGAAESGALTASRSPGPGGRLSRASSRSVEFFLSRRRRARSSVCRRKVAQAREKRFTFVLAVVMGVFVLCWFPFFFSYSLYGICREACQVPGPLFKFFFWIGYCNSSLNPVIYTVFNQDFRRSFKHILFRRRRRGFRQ

5HT-Transporter = target: T3, 5HT-Transporter (Homo sapiens, UniProt P31645); assay: Binding experiment for the 5HT-transporter ([3H]paroxetine, human platelet membranes); settings: [3H]paroxetine 0.5 nM, read-out: h-5HTT pIC50 (converted)
T3 construct: Human platelet membranes (Oceanix Biosciences Corporation, Hanover, Md., USA) were thawed; tissue Oceanix Biosciences Corporation, Hanover, Md., USA; host or cells: human platelet membranes
T3 sequence (P31645 whole entry): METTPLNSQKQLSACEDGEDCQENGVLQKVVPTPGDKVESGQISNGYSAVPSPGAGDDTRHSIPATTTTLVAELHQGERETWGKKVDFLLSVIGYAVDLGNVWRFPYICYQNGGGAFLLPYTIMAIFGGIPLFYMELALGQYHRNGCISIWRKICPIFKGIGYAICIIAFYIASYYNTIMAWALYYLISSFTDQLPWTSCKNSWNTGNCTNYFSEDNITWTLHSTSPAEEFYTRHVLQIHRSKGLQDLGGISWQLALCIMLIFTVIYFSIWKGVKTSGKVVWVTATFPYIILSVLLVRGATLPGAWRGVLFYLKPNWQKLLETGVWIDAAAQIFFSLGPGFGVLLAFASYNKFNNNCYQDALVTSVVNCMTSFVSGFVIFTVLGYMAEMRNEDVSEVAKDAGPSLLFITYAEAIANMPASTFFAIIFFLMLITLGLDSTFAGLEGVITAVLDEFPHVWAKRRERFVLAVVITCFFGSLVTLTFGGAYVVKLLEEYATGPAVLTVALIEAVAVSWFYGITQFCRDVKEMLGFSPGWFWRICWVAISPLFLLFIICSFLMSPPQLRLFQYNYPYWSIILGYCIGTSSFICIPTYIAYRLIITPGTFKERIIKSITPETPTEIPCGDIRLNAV
How it was run: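 Competition binding of [3H]paroxetine to human platelet membranes in Tris-HCl 50 mM, 120 mM NaCl, 5 mM KCl, with filtration and scintillation counting.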

Row | IC50 (hα2A receptor) [nM] | IC50 (hα2C receptor) [nM] | IC50 (5HT-Transporter) [nM] | melting point [°C] | Compound
1 | 31.6 | 12.6 | 2000 | 126 | C=CCn1ccnc(NC2CCN(C/C(C)=C/c3ccccc3)CC2)c1=O [7-11]
2 | 63.1 | 31.6 | 2000 | 107 | C/C(=C\c1ccccc1)CN1CCC(Nc2nccn(Cc3cc(C)on3)c2=O)CC1 [6-3]
3 | 39.8 | 6.31 | 1000 | 210 | C/C(=C\c1ccccc1)CN1CCC(Nc2nccn(-c3ccsc3)c2=O)CC1 [6-4]

The remaining lines, values behind:

Row | Compound | IC50 (hα2A receptor) [nM] | IC50 (hα2C receptor) [nM] | IC50 (5HT-Transporter) [nM] | melting point [°C]
4 | C/C(=C\c1ccccc1)CN1CCC(Nc2nccn(-c3ccc(CN(C)CCN(C)C)cc3)c2=O)CC1 [1-110] | 20 | 2 | 501 | 115
5 | C/C(=C\c1ccccc1)CN1CCC(Nc2nccn(Cc3ccc(OC(F)(F)F)cc3)c2=O)CC1 [3-15] | 251 | 126 | 1260 | 99
6 | CC(=O)CNCCCn1ccnc(NC2CCN(C/C(C)=C/c3ccccc3)CC2)c1=O [1-37] | 79.4 | 3.98 | 1260 | 160
7 | C/C(=C\c1ccccc1)CN1CCC(Nc2nccn(Cc3ccc(CNS(=O)(=O)c4ccccc4)cc3)c2=O)CC1 [1-159] | 63.1 | 25.1 | 794 | 128
8 | C/C(=C\c1ccccc1)CN1CCC(Nc2nccn(CC(=O)N(C)C)c2=O)CC1 [1-16] | 100 | 15.8 | > 10000 | 128
9 | C/C(=C\c1ccccc1)CN1CCC(Nc2nccn(Cc3ccc([N+](=O)[O-])cc3)c2=O)CC1 [5-25] | 126 | 31.6 | 631 | 123
10 | C/C(=C\c1ccccc1)CN1CCC(Nc2nccn(Cc3ccc(CN)cc3)c2=O)CC1 [1-6] | 12.6 | 2.51 | 398 | 286
11 | CC(=O)c1ccc(S(=O)(=O)NCc2ccc(Cn3ccnc(NC4CCN(C/C(C)=C/c5ccccc5)CC4)c3=O)cc2)cc1 [1-165] | 158 | 25.1 | 1000 | 110
